Data as given in patent EP1602719B1, “Control of transglutaminase catalyzed protein modification by selective irreversible transglutaminase inhibitors” (N-Zyme BioTec GmbH, priority 2004, dated 2005).
Peptide text beside a SMILES is read from it. * marks the point of attachment. Cbz = O=C(OCc1ccccc1)*; Acryloyl = C=CC(=O)*

Target: T1, Meerschweinchenlebertransglutaminase (Cavia cutleri, UniProt P08587)
T1 sequence (P08587 1-690): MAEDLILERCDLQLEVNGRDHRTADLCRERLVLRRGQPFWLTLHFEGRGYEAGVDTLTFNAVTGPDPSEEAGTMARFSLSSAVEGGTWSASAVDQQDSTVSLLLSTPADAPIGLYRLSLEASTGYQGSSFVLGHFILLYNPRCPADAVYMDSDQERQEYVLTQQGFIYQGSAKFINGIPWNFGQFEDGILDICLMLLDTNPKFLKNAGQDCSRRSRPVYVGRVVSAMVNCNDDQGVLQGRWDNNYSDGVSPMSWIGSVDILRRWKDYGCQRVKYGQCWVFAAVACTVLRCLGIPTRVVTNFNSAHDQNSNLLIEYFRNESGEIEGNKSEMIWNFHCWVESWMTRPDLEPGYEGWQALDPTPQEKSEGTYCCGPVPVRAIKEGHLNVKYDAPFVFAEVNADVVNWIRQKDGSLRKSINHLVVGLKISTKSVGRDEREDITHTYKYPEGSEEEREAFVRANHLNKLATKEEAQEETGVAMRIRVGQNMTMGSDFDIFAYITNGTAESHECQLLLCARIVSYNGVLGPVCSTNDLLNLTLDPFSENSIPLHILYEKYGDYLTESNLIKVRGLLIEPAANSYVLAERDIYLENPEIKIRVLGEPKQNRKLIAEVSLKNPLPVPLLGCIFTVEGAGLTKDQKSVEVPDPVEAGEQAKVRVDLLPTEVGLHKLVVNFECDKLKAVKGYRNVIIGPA
Experiment: Transglutaminase-catalysed labelling of recombinant hLeptin with Z-Gln-Gly-CAD-DNS, reaction stopped by inhibitor, RP-HPLC (Beispiel 7)
Assay type: biochemical, Meerschweinchen
Conditions: inhibitor 0,5 mM
Experimental: Alle nachfolgend beschriebenen Experimente wurden nach dem gleichen Standardprotokoll durchgeführt. Dabei werden das jeweilige Zielprotein und das farbstofftragende amin- oder glutaminhaltige Substrat in einem geeigneten Puffer vorgelegt und für 5 Min. auf 37°C temperiert. Anschließend wird durch Zugabe von Transglutaminase die Reaktion gestartet. Nach variierenden Inkubationszeiten, durch die jeweils verschiedene Markierungsgrade erreicht werden, wird durch Zugabe eines Inhibitors die Transglutaminase vollständig und irreversibel inaktiviert (Reaktionsabbruch 1). In Kontrollexperimenten wird die Markierungsreaktion durch Abtrennung des ungebundenen, farbstofftragenden Substrates unterbrochen (Reaktionsabbruch 2). Die Abtrennung des ungebundenen Farbstoffes erfolgt unter Normaldruck über eine PD-10-Säule (Amersham Biosciences). Dieses allgemein einsetzbare Verfahren zur schnellen Abtrennung kleiner Moleküle von Makromolekülen wie Proteinen basiert auf dem Prinzip der Gelpermeationschromatographie und kann als das vorteilhafteste Verfahren zur Reaktionskontrolle nach dem Stand der Technik angesehen werden. Andere Verfahren, mit denen die weitere katalytische Markierungsreaktion abgebrochen werden könnte, sind weniger geeignet oder nicht allgemein einsetzbar (z. B. thermische, unspezifische chemische oder affinitätschromatographische Methoden). Die Gelpermeationschromatographie wurde jeweils so schnell wie technisch machbar durchgeführt. Dazu wird auf die vorkonditionierte PD-10-Säule 2,5 ml des Reaktionsvolumens aufgetragen und die Lösung vollständig in das Trennmaterial eingebracht. Anschließend wird das Protein mit 3,5 ml Puffer eluiert. Die niedermolekularen Substanzen verbleiben auf der Säule. Der Gesamtprozess benötigt eine Zeitspanne von mindestens 3 Minuten. Während dieser Zeit kann Transglutaminase weiter auf das Zielprotein einwirken. […]

Structure (SMILES): C=CC(=O)NCCCC[C@H](NC(=O)OCc1ccccc1)C(=O)NCC(=O)O [Z-Lys(Acryloylamid)-Gly-OH, N^α-Benzyloxycarbonyl-L-lysinyl(ε-acryloyl)glycin] (Cbz-Lys(Acryloyl)-Gly-OH)
- Inaktivierung der Meerschweinchenlebertransglutaminase (added after 5 Min., GpTGase 0,25 U/ml, pH 8): vollständig
- weitere Labeling- und Quervernetzungsreaktionen (stopped reaction mixture kept at RT for 30 and 60 Min.): keine weitere Labeling- und Quervernetzungsreaktionen
- weitere enzymatische Reaktionen nach Lagerung (stored 10 days at -20°C, then one hour at RT): keine weiteren enzymatischen Reaktionen mehr
